The text below walks through data of ChEMBL document CHEMBL3045994, “Design, synthesis, and anticonvulsant evaluation of some novel 1, 3 benzothiazol-2-yl hydrazones/acetohydrazones” (Med Chem Res, 2012).

The subject of data set [1] is Mus musculus. The data set can be described thus: Neurotoxicity in Mus musculus albino CF1 (mouse) assessed as motor impairment at 300 mg/kg, ip up to 4 hr. It counts as toxicity, organism-based. Set-up: dose 300 mg/kg, route intraperitoneal. The settings on record: in vivo.
The test system of data set [2] is Mus musculus. The data set can be described thus: Anticonvulsant activity in Mus musculus albino CF1 (mouse) assessed as protection against 6 Hz psychomotor seizure at 100 mg/kg, ip after 0.5 hr. It counts as functional. The settings on record: route intraperitoneal.
Data set [3] in a line: Octanol-phosphate buffer partition coefficient, log P of the compound after 24 hr. It counts as physicochemical.
Data set [4] relates to Mus musculus. The data set can be described thus: Neurotoxicity in Mus musculus albino CF1 (mouse) assessed as motor impairment at 100 mg/kg, ip after 1 hr. It counts as toxicity, organism-based. Details: dose 100 mg/kg, route intraperitoneal. The settings on record: in vivo.
Data set [5] deals with Mus musculus. The data set can be described thus: Anticonvulsant activity in Mus musculus albino CF1 (mouse) assessed as protection against 6 Hz psychomotor seizure at 100 mg/kg, ip after 2 hr. The settings on record: route intraperitoneal. It counts as functional.
For data set [6], the system named is Mus musculus. Kind of data set: Neurotoxicity in Mus musculus albino CF1 (mouse) assessed as motor impairment at 100 mg/kg, ip after 4 hr. It counts as toxicity, organism-based. Details: dose 100 mg/kg, route intraperitoneal. The settings on record: in vivo.
Data set [7] concerns Mus musculus. Kind of data set: Anticonvulsant activity in Mus musculus albino CF1 (mouse) assessed as protection against 6 Hz psychomotor seizure at 100 mg/kg, ip after 1 hr. The settings on record: route intraperitoneal. It counts as functional.
Data set [8] has as its system Mus musculus. Kind of data set: Anticonvulsant activity in Mus musculus albino CF1 (mouse) assessed as protection against 6 Hz psychomotor seizure at 100 mg/kg, ip after 4 hr. It counts as functional. The settings on record: route intraperitoneal.
In data set [9] the test system is Mus musculus. The data set can be described thus: Anticonvulsant activity in Mus musculus albino CF1 (mouse) assessed as protection against 6 Hz psychomotor seizure at 100 mg/kg, ip after 0.25 hr. It counts as functional. The settings on record: route intraperitoneal.
The test system of data set [10] is Mus musculus. The data set can be described thus: Neurotoxicity in Mus musculus albino CF1 (mouse) assessed as motor impairment at 100 mg/kg, ip after 0.25 hr. It counts as toxicity, organism-based. Set-up: dose 100 mg/kg, route intraperitoneal. Particulars: in vivo.
In data set [11] the test system is Mus musculus. The data set can be described thus: Neurotoxicity in Mus musculus albino CF1 (mouse) assessed as motor impairment at 100 mg/kg, ip after 2 hr. It counts as toxicity, organism-based. The settings on record: in vivo. Set-up: dose 100 mg/kg, route intraperitoneal.
Data set [12] relates to Mus musculus. The data set can be described thus: Neurotoxicity in Mus musculus albino CF1 (mouse) assessed as motor impairment at 100 mg/kg, ip after 0.5 hr. Details: dose 100 mg/kg, route intraperitoneal. It counts as toxicity, organism-based. The settings on record: in vivo.

The structures appear in SMILES notation.

Broadly, the logP is a log measure of how a compound divides between an organic and an aqueous phase. Lower therefore signals lower lipophilicity. For the compound `Brc1ccc(Oc2ccc(/C=N/Nc3nc4ccccc4s3)cc2)cc1`, the Activity result in [1] is given as “Non-toxic”; in data set [2] it was 50%; in data set [4], “Non-toxic”; in [5] it was 50%; in data set [6] it was “Non-toxic”; in data set [7], 25%. For the same compound, the Activity is 0% in data set [8]; 0% in data set [9]; “Non-toxic” in data set [10]; “Non-toxic” in data set [11]; “Non-toxic” in [12]. This compound also had a lipophilicity (logP) at 24 h in [3] of 5.5.

As for `O=C(CSc1nc2ccccc2s1)N/N=C/c1ccc(Oc2ccc(Br)cc2)cc1`, the Activity result was “Non-toxic” in data set [1]; 50% in data set [2]; “Non-toxic” in data set [4]; 0% in data set [5]; “Non-toxic” in [6]; 75% in data set [7]. The Activity in data set [8] is recorded as 0%; in data set [9] it was 0%; in data set [10] it was “Non-toxic”; in [11], “Non-toxic”; in data set [12], “Non-toxic”. In data set [3], this compound yielded a logP at 24 h of 5.7.

As for `O=C(CSc1nc2ccccc2s1)N/N=C/c1ccc(Oc2ccc(F)cc2)cc1`, the Activity entry is “Non-toxic” in [1]; 25% in data set [2]; “Non-toxic” in [4]; 0% in data set [5]; “Non-toxic” in [6]; 0% in data set [7]. Besides, the Activity in [8] is 0%; in data set [9] it was 50%; in [10], “Non-toxic”; in data set [11] it was “Non-toxic”; in [12] it was “Non-toxic”. The compound also showed a logP at 24 h in data set [3] of 5.5.

With `C(=N\Nc1nc2ccccc2s1)/c1ccc(Oc2ccc3ccccc3c2)cc1`, the Activity entry in data set [1] is listed as “Non-toxic”; in [2] it was 0%; in [4], “Non-toxic”; in [5], 50%; in [6], “Non-toxic”; in [7], 25%. Besides, the Activity in data set [8] is 0%; in data set [9], 25%; in [10] it was “Non-toxic”; in data set [11], “Non-toxic”; in data set [12], “Non-toxic”. In data set [3], the logP at 24 h was 5.6.

On to `O=C(CSc1nc2ccccc2s1)N/N=C/c1ccc(Oc2ccc(Cl)cc2)cc1`, for which the Activity result in data set [1] is reported as “Non-toxic”; in [2], 0%; in [4], “Non-toxic”; in data set [5], 25%; in [6] it was “Non-toxic”; in data set [7] it was 75%. Further, the Activity in data set [8] is listed as 0%; in [9] it was 0%; in [10], “Non-toxic”; in data set [11], “Non-toxic”; in data set [12] it was “Non-toxic”. The same compound registered a logP at 24 h in [3] of 5.6.
